In patent US9340542B2, “Propellane-based compounds and the use thereof” (Purdue Pharma L.P., priority 2013, dated 2016):
Like-named read-outs stand apart in the source and are kept apart here.

Legend:
[1] = target: T1, κ opioid receptor (Homo sapiens (Human), UniProt P41145); assay: κ-opioid receptor radioligand dose-displacement binding assay ([3H]-U69,593); details: binding affinity
Protocol: Membranes from HEK-293 cells, CHO or U-2 OS cells expressing the recombinant human κ opioid receptor (κ) were prepared by lysing cells in ice cold hypotonic buffer (2.5 mM MgCl2, 50 mM HEPES, pH 7.4) (10 mL/10 cm dish) followed by homogenization with a tissue grinder/Teflon pestle. Membranes were collected by centrifugation at 30,000×g for 15 min at 4° C. and pellets were resuspended in hypotonic buffer to a final concentration of 1-3 mg/mL. Protein concentrations were determined using the BioRad protein assay reagent with bovine serum albumen as standard. Aliquots of κ receptor membranes were stored at −80° C.
Radioligand dose displacement assays used 0.4 nM [^3H]-U69,593 (GE Healthcare, Piscataway, N.J.; 40 Ci/mmole) with 15 μg membrane protein (recombinant κ opioid receptor expressed in HEK 293 cells; in-house prep) in a final volume of 200 μl binding buffer (5% DMSO, 50 mM Trizma base, pH 7.4). Non-specific binding was determined in the presence of 10 μM unlabeled naloxone or U69,593. All reactions were performed in 96-well polypropylene plates for 1 hour at a temperature of about 25° C. Binding reactions were terminated by rapid filtration onto 96-well Unifilter GF/C filter plates (Perkin Elmer, Shelton, Conn.) presoaked in 0.5% polyethylenimine (Sigma). Harvesting was performed using a 96-well tissue harvester (Perkin Elmer, Shelton, Conn.) followed by five filtration washes with 200 μl ice-cold binding buffer. Filter plates were subsequently dried at 50° C. for 1-2 hours. Fifty μl/well scintillation cocktail (Perkin Elmer, Shelton, Conn.) was added and plates were counted in a Packard Top-Count for 1 min/well.
(§1) In TABLE 1, binding affinity of certain Compounds of the Invention to the μ- and κ-opioid receptors was determined as described above.

[2] = target: T2, μ-opioid receptor (Homo sapiens (Human), UniProt P35372); assay: μ-opioid receptor radioligand dose-displacement binding assay ([3H]-diprenorphine); details: binding affinity
Protocol: Radioligand dose-displacement binding assays for μ-opioid receptors used 0.3 nM [^3H]-diprenorphine (Perkin Elmer, Shelton, Conn.), with […] membrane protein/well in a final volume of 500 μl binding buffer (10 mM MgCl2, 1 mM EDTA, 5% DMSO, 50 mM HEPES, pH 7.4). Reactions were carried out in the absence or presence of increasing concentrations of unlabeled naloxone. All reactions were conducted in 96-deep well polypropylene plates for 2 hours at room temperature. Binding reactions were terminated by rapid filtration onto 96-well Unifilter GF/C filter plates (Perkin Elmer, Shelton, Conn.), presoaked in 0.5% polyethylenimine using a 96-well tissue harvester (Perkin Elmer, Shelton, Conn.) followed by performing three filtration washes with 500 μl of ice-cold binding buffer. Filter plates were subsequently dried at 50° C. for 2-3 hours. BetaScint scintillation cocktail (Perkin Elmer, Shelton, Conn.) was added (50 μl/well), and plates were counted using a Packard Top-Count for 1 min/well. The data were analyzed using the one-site competition curve fitting functions in GraphPad PRISM™ v. 3.0 or higher (San Diego, Calif.), or an in-house function for one-site competition curve-fitting.
as §1

[3] = target: T1, κ opioid receptor; assay: κ-opioid receptor [35S]GTPγS functional assay; format: biochemical; details: for EC50: GTPγS functional assay using U-2 OS cells; for Emax: maximal effect relative to U69,593, U-2 OS cells
Protocol: Functional [^35S]GTPγS binding assays were conducted as follows. κ opioid receptor membrane solution was prepared by sequentially adding final concentrations of 0.026 μg/μl κ membrane protein (in-house), 10 μg/mL saponin, 3 μM GDP and 0.20 nM [^35S]GTPγS to binding buffer (100 mM NaCl, 10 mM MgCl2, 20 mM HEPES, pH 7.4) on ice. The prepared membrane solution (190 μl/well) was transferred to 96-shallow well polypropylene plates containing 10 μl of 20× concentrated stock solutions of agonist prepared in DMSO. Plates were incubated for 30 min at a temperature of about 25° C. with shaking. Reactions were terminated by rapid filtration onto 96-well Unifilter GF/B filter plates (Perkin Elmer, Shelton, Conn.) using a 96-well tissue harvester (Packard) and followed by three filtration washes with 200 μl ice-cold binding buffer (10 mM NaH2PO4, 10 mM Na2HPO4, pH 7.4). Filter plates were subsequently dried at 50° C. for 2-3 hours. Fifty μl/well scintillation cocktail (Perkin Elmer, Shelton, Conn.) was added and plates were counted in a Packard Top-Count for 1 min/well.
κ GTP EC50 is the concentration of a compound providing 50% of the maximal response for the compound at a κ receptor.
κ GTP Emax (%) is the maximal effect elicited by a compound relative to the effect elicited by U69,593.
(§2) In TABLE 2, activity response of certain Compounds of the Invention to the μ- and κ-opioid receptors was determined as described above for functional assays using U-2 OS cells.

[4] = target: T2, μ-opioid receptor; assay: μ-opioid receptor [35S]GTPγS functional assay; format: biochemical; details: for EC50: GTPγS functional assay using U-2 OS cells; for Emax: maximal effect relative to DAMGO, U-2 OS cells
Protocol: [^35S]GTPγS functional assays were conducted using freshly thawed p-receptor membranes prepared in-house from a cell line expressing recombinant μ opioid receptor in a HEK-293, CHO or U-2 OS cell background, or purchased from a commercial source (Perkin Elmer, Shelton. Conn.; or DiscovRx, Fremont, Calif.). Assay reactions were prepared by sequentially adding the following reagents to binding buffer (100 mM NaCl, 10 mM MgCl2, 20 mM HEPES, pH 7.4) on ice (final concentrations indicated): membrane protein ([…]), saponin ([…]), GDP ([…]) and [^35S]GTPγS (0.20 nM; Perkin Elmer, Shelton, Conn.). The prepared membrane solution (190 μl/well) was transferred to 96-shallow well polypropylene plates containing 10 μl of 20× concentrated stock solutions of the agonist [D-Ala^2, N-methyl-Phe^4 Gly-ol^5]-enkephalin (DAMGO) prepared in dimethyl sulfoxide (DMSO). Plates were incubated for 30 min at about 25° C. with shaking. Reactions were terminated by rapid filtration onto 96-well Unifilter GF/B filter plates (Perkin Elmer, Shelton, Conn.) using a 96-well tissue harvester (Perkin Elmer, Shelton, Conn.) followed by three filtration washes with 200 μl of ice-cold wash buffer (10 mM NaH2PO4, 10 mM Na2HPO4, pH 7.4). Filter plates were subsequently dried at 50° C. for 2-3 hours. BetaScint scintillation cocktail (Perkin Elmer, Shelton, Conn.) was added (50 μl/well) and plates were counted using a Packard Top-Count for 1 min/well. Data were analyzed using the sigmoidal dose-response curve fitting functions in GraphPad PRISM v. 3.0, or an in-house function for non-linear, sigmoidal dose-response curve-fitting.
μ GTP EC50 is the concentration of a compound providing 50% of the maximal response for the compound at a […] receptor.
μ GTP Emax (%) is the maximal effect elicited by a compound relative to the effect elicited by DAMGO, a standard μ agonist. Generally, the μ GTP Emax (%) value measures the efficacy of a compound to treat or prevent pain or other Conditions.
as §2

[5] = read-out: Opioid Receptor Ki (nM) μ

Row | SMILES | Ki [1] [nM] | Ki [2, 5] [nM] | Ki ([2]; read-out: Opioid Receptor Ki μ) [nM] | EC50 [3] [nM] | Emax [3] [%] | EC50 [4] [nM] | Emax [4] [%]
1 | COc1ccc2c(c1)[C@]13CCN(CC4CC4)C[C@]1(CC[C@@]1(C3)NC(=O)NC1=O)C2 [Compound 2, (3S,4aR,9,aR)-11-(cyclopropylmethyl)-6-methoxy-1,2,4,9-tetrahydrospiro[4a,9a-(ethanoiminomethano)fluorene-3,4′-imidazolidine]-2′,5′-dione] | 4760 ± 1110 | 6250 ± 874 |  |  |  |  | 
2 | COc1ccc2c(c1)[C@]13CCN(CC4CC4)C[C@]1(CC[C@]1(C3)NC(=O)NC1=O)C2 [Compound 3] | 8410 ± 650 |  | > 20000 |  |  |  | 
3 | COC(=O)c1cc2c([nH]c1=O)C[C@@]13CCN(CC4CC4)C[C@@]1(Cc1ccc(OC)cc13)C2 [Compound 5, (5aS,10bR)-methyl 14-(cyclopropylmethyl)-9-methoxy-2-oxo-2,5,6,11-tetrahydro-1H-10b,5a-(ethanoiminomethano)indeno[2,1-g]quinoline-3-carboxylate] | 3600 ± 882 | 9550 ± 1870 |  |  |  |  | 
4 | COc1ccc2c(c1)[C@]13CCN(CC4CC4)C[C@@]1(C2)Cc1cc(C(N)=O)c(=O)[nH]c1C3 [Compound 6, (5aS,10bR)-14-(cyclopropylmethyl)-9-methoxy-2-oxo-2,5,6,11-tetrahydro-1H-10b,5a-(ethanoiminomethano)indeno[2,1-g]quinoline-3-carboxamide] | 4280 ± 1090 | 15600 |  |  |  |  | 
5 | NC(=O)c1cc2c([nH]c1=O)C[C@@]13CCN(CC4CC4)C[C@@]1(Cc1ccc(O)cc13)C2 [Compound 7, (5aS,10bR)-14-(cyclopropylmethyl)-9-hydroxy-2-oxo-2,5,6,11-tetrabydro-1H-10b,5a-(ethanoiminomethano)indeno[2,1-g]quinoline-3-carboxamide] | 148 ± 39.8 | 770 ± 102 |  | 570 ± 85.4 | 103 ± 5.21 | 412 ± 66.4 | 19.3 ± 3.18
6 | O=C1NC(=O)[C@@]2(CC[C@@]34Cc5ccc(O)cc5[C@@]3(CCN(CC3CC3)C4)C2)N1 [Compound 8, (3S,4aR,9aR)-11-(cyclopropylmethyl)-6-hydroxy-1,2,4,9-tetrahydrospiro[4a,9a-(ethanoiminomethano)fluorene-3,4′-imidazolidine]-2′,5′-dione] | 72.5 ± 18.3 | 472 ± 93 |  | 384 ± 36.9 | 119 ± 4.41 | 414 ± 62.8 | 86.7 ± 1.67
7 | O=C1NC(=O)[C@]2(CC[C@@]34Cc5ccc(O)cc5[C@@]3(CCN(CC3CC3)C4)C2)N1 [Compound 9, (3R,4aR,9aR)-11-(cyclopropylmethyl)-6-hydroxy-1,2,4,9-tetrahydrospiro[4a,9a-(ethanoiminomethano)fluorene-3,4′-imidazolidine]-2′,5′-dione] | 148 ± 25.2 | 676 ± 74.1 |  | 318.8 ± 1.38 | 109 ± 7.09 | 309 ± 36.3 | 94 ± 3.06
